One assay relates to E. coli (ATCC 25922). Nature of the assay: Antibacterial assay, broth microdilution MIC. The format is cell-based, Escherichia coli. To be noted: E. coli ATCC 25922, 35 °C, 20 h, read-out: MIC E. coli. The protocol:
(§1) To test antimicrobial properties, a broth microdilution method in 96-well plates was used according to Clinical and Laboratory Standards Institute guidelines[31] and European Committee on Antimicrobial Susceptibility Testing ([…]) recommendations.[32] Bacterial suspensions, equivalent to a 0.5 McFarland turbidity standard, were diluted with cation-adjusted Mueller–Hinton broth with TES buffering (ThermoFisher Scientific) to achieve a final inoculum of 10^5 CFU/mL. Compounds dissolved in 100% DMSO at a concentration of 10 mM were mixed with the inoculum and incubated at 35 °C for 20 h.
Background: In broth dilution the organism is exposed to a series of concentrations in liquid medium.

For assay [1], the target named is T1, MurA enzyme from E. coli (Escherichia coli, UniProt P0A749). Nature of the assay: MurA dilution assay. The class given is biochemical. Conditions: compound at 10 times IC50, 30 min preincubation, then 100-fold dilution. The protocol: The enzyme concentration used was the usual concentration in reactivity assays 100-fold (25 μM). After 30 min of preincubation, the mixture was diluted 100-fold, then the previously described reactivity assay was performed using 100 μM PEP.
T1 sequence (P0A749 whole entry): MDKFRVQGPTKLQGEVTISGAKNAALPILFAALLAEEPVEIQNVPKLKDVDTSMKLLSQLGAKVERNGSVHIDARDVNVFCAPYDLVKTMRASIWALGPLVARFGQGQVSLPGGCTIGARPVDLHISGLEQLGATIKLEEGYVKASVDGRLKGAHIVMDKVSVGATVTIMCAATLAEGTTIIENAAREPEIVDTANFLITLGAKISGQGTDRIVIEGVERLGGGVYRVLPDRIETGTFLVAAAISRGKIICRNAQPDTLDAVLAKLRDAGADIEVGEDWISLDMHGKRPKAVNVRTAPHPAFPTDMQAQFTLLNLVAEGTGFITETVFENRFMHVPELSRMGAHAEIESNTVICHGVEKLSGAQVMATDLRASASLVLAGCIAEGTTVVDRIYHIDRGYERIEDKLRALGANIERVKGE

A further assay has as its system S. aureus. Details: method as in PMID 18313801. Conditions: cited from earlier work.
Assay [2] deals with T1, MurA enzyme from E. coli. The assay is described as follows: MurA inhibition assay (malachite green, orthophosphate release). The class given is biochemical. To be noted: for inhibitory activity on MurA in at least one of the three assays: residual activity at 100 μM, threshold 50% RA, no preincubation, 30 min preincubation, or 30 min + DTT. The protocol: To determine the inhibition of MurA, the colorimetric assay with malachite green was used to measure the release of orthophosphate generated during the reaction.[30] […] Time-dependent inhibition assays were also performed by preincubating MurA with the 200 μM UNAG substrate and target compounds for 30 min at 37 °C before starting the reaction with the addition of the second substrate 100 μM PEP, resulting in a final mixture volume of 50 μL. The reaction was stopped after a 15 min incubation at 37 °C by adding the Biomol reagent (100 μL, Enzo Life Sciences, New York), and the absorbance was measured after 5 min at 650 nm using a microplate reader (BioTek, Synergy H4). The final concentration of DMSO in the reaction mixture was 5% (v/v), and 1 μM fosfomycin was used as a reference in the MurA assay. The percentage of residual activity was calculated in comparison to the negative controls, which contained only 5% DMSO. IC50 values were determined by measuring residual activities at 7 different concentrations of the compounds and calculated using GraphPad Prism (GraphPad Software, San Diego, California).
The initial screening of flavonoids was performed under three different assay conditions: (1) without preincubation, (2) with a 30 min preincubation, and (3) with the addition of dithiothreitol (DTT) along with a 30 min preincubation. These different conditions were necessary to understand the mechanism of inhibition of each flavonoid. […] To distinguish whether the adduct formed between the inhibitor and the enzyme was covalent or noncovalent, the inhibitory activity was tested in the presence of 0.1 mM DTT.

A further assay deals with S. aureus (ATCC 29213). Nature of the assay: Antibacterial assay, broth microdilution MIC. The class given is cell-based, Staphylococcus aureus. To be noted: for MIC: S. aureus ATCC 29213, 35 °C, 20 h, read-out: MIC S. aureus. As for the experimental part: as §1

pIC50: −log10 of the molar value. ≈ marks a conversion by molar mass, not a printed value. Where two headings read alike, the source gives them in different places.

The term MIC denotes the lowest concentration that inhibits growth of the organism. Broadly, the pIC50 is −log10 of the IC50, conventionally taken in molar units. Turning to `O=c1cc(-c2ccc(O)c(O)c2)oc2cc(O)cc(O)c12` [Compound 17, luteolin], the MIC was more than 250 µM with E. coli (ATCC 25922) (Escherichia coli, ATCC25922) and 125 µM (≈ 35.8 µg/mL) with S. aureus (ATCC 29213) (Staphylococcus aureus, ATCC29213). Moreover, the “RA% (residual activity), dilution assay” value on MurA enzyme from E. coli [1] is on record as 91%. Moreover, the “antibacterial activity against S. aureus, previous report” value in the assay on S. aureus was 50 µg/mL. Further, the remaining activity at 100 µM at MurA enzyme from E. coli [2] (100 μM, 30 min preincubation with addition of DTT (0.1 mM), read-out: RA% (residual activity), 30 min + DTT) turned out to be 96%; on MurA enzyme from E. coli [2] (100 μM, without preincubation, read-out: RA% (residual activity), 0 min), 68%. Moreover, the “Hill coefficient, 30 min” value on MurA enzyme from E. coli [2] (30 min preincubation) is 1.3. Moreover, on MurA enzyme from E. coli [2] (30 min preincubation, read-out: IC50, 30 min), the pIC50 is 4.38. In addition, at MurA enzyme from E. coli [2], the “inhibitory activity on MurA in at least one of the three assays” value is reported as “showed inhibitory activity”. Moreover, the “inhibition of S. aureus growth” value in the assay with S. aureus (ATCC 29213) (broth microdilution) was “weak inhibition”.

On to myricitrin [Compound 5], for which the minimum inhibitory concentration (MIC) in the assay with E. coli (ATCC 25922) and with S. aureus (ATCC 29213) was more than 250 µM each time. Further, the “RA% (residual activity), dilution assay” value at MurA enzyme from E. coli [1] stood at 97%. In addition, at MurA enzyme from E. coli [2] (100 μM, 30 min preincubation with addition of DTT (0.1 mM)), the “RA% (residual activity), 30 min + DTT” value turned out to be 106%. Moreover, the “RA% (residual activity), 0 min” value on MurA enzyme from E. coli [2] (100 μM, without preincubation) is 76%. Further, the “Hill coefficient, 30 min” value at MurA enzyme from E. coli [2] (30 min preincubation) is 0.6. Besides, the “inhibitory activity on MurA in at least one of the three assays” value on MurA enzyme from E. coli [2] was “showed inhibitory activity”.

Source of the values: publication PMC10500568, “Inhibition of MurA Enzyme from Escherichia coli by Flavonoids and Their Synthetic Analogues” (ACS Omega, 2023).
